Measurements taken from PubChem BioAssay AID1963451 (Molecular Pharmacology Branch, DTP, NCI, 2024).
Blank lines part the entries; values can stand above or below the compound they belong to.

Tested on: 521955-158-R6-J3-PDC complex spheroid growth, % test/control
Experiment: Anticancer human tumor 521955-158-R6-J3-PDC patient-derived pancreatic carcinoma cell line growth inhibition [Asc]
Details: for IC50: curve of first compound; for viability, T/C: stronger effect = lower value
Procedure: Multicellular complex tumor spheroid response to apoptosis pathway targeting inhibitors Alrizomadlin, Pelcitoclax, and Dasminapant in combination with a variety of drugs and investigational agents in selected tumor cell lines
The MDM2 inhibitor alrizomadlin, the Bcl-2/Bcl-xL inhibitor pelcitoclax, and the IAPs inhibitor dasminapant were evaluated both individually and in combination with standard of care and investigational anticancer small molecules within a complex spheroid model of solid tumors. . Complex spheroids include a stromal component modeled by human endothelial cells (HUVEC) and fibroblasts modeled by human mesenchymal stem cells (MSCs). The concentration ranges selected for each drug and investigational agent were based upon clinically achievable concentrations if the clinical Cmax of the agent was known.
Compounds. The drugs and investigational agents: alrizomadlin (APG-115; NSC831270), pelcitoclax (APG-1252; NSC835773), dasminapant (APG-1387;NSC834197), TAK-243 (NSC785004), copanlisib (NSC809693), olaparib (NSC753686), talazoparib (NSC767125), cobimetinib (NSC 768068), eltanexor (KPT-8602, NSC 794443), abemaciclib (NSC 768073), sotorasib (NSC818433), adagrasib (NSC 831453), MRTX-1133 (NSC 836407), Iadademestat (ORY1001, NSC 806812), and RMC-4630 (NSC839698), were obtained from the NCI Developmental Therapeutics Program Chemical Repository. The FDA-approved anticancer drug set is available from the Developmental Therapeutics Program at https://dtp.cancer.gov/organization/dscb/obtaining/available plates.htm. […] The stock solutions were prepared in dimethyl sulfoxide (DMSO, Sigma-Aldrich, St. Louis, MO, cat. D2650) at 800-fold the tested concentration and stored at -70 degrees C prior to their use. All drugs and investigational agents were tested over a range starting from a high concentration at or near the clinical Cmax and decreasing in half-log increments. If the clinical Cmax for an agent had not been determined, the highest concentration tested was 10 microM.
The patient-derived cancer (PDC) cell lines include five colon adenocarcinomas: 186277-243-T-J2-PDC, 616215-338-R-J1-PDC, 439559-082-T-J2-PDC, 463943-066-T-J2-PDC, and 519858-162-T-J1-PDC; three pancreatic carcinomas: 323965-272-R-J2-PDC, 521955-158-R6-J3-PDC, and 521955-158-R2-J5-PDC; two uterine sarcomas: 327498-152-R-J2-PDC and 993429-296-R-J1-PDC; two rhabdomyosarcomas: 755483-174-R-J1-PDC and 772245-204-R-J1-PDC; two soft tissue sarcomas: 126254-015-R-J1-PDC and 494315-158-R-J1-PDC; two malignant fibrous histiocytomas: 317291-083-R-J1-PDC and 596521-263-R-J1-PDC; two breast carcinomas: 171881-019-R-J1-PDC and 885512-296-R-J2-PDC; and one ovarian carcinoma: 6556581-035-R-J-PDC were obtained from the NCI PDMR, (https://pdmr.cancer.gov). The established cell lines HSSY-2 synovial sarcoma (RRID:CVCL 8719), SYO-1 synovial sarcoma (RRID:CVCL_7146), MPNST malignant peripheral neural sheath tumor were obtained from the Sloan Kettering Institute. The following established cell lines were purchased from the American Type Culture Collection (ATCC, Manassas, VA), Sor the received from the NCI repository:, PANC-1 pancreatic carcinoma (CRL-1469, RRID:CVCL_0480), OVCAR-5 ovarian carcinoma (RRID:CVCL_1628), OVCAR-8 ovarian carcinoma (RRID:CVCL_1629), , MCF-7 breast carcinoma (CRL-12584, RRID:CVCL_0031), MDA-MB-231 breast carcinoma (CRL-12532, RRID:CVCL_0062), NCI-H1876 small cell lung carcinoma (CRL-5902, RRID:CVCL_1503), NCI-H510A small cell lung carcinoma (HTB-184, RRID:CVCL_1565), NCI-H1417 (CRL-5869, RRID:CVCL_1469), and NCI-H196 small cell lung carcinoma (CRL-5823, RRID:CVCL_1509). Dr. Peter Houghton (Greehey Children's Cancer Research Institute, University of Texas Health Science Center, San Antonio, TX) provided Rh-18 rhabdomyosarcoma (RRID:CVCL_1659). Pooled donor human umbilical vein endothelial cells (HUVEC, Lonza, cat. CC-2519) and human mesenchymal stem cells (hMSC, Lonza, cat. PT-2501) were purchased from Lonza (Walkersville, MD).
Cell Culture. […]

[1] = second compound 0.00949 µM, first compound 0.00316 µM
[2] = second compound 0.00949 µM, first compound 0.01 µM
[3] = second compound 0.00949 µM, first compound 0.0316 µM
[4] = second compound 0.00949 µM, first compound 0.1 µM
[5] = second compound 0.00949 µM, first compound 0.316 µM
[6] = second compound 0.00949 µM, first compound 1 µM
[7] = second compound 0.03 µM, first compound 0.00316 µM
[8] = second compound 0.03 µM, first compound 0.01 µM
[9] = second compound 0.03 µM, first compound 0.0316 µM
[10] = second compound 0.03 µM, first compound 0.1 µM
[11] = second compound 0.03 µM, first compound 0.316 µM
[12] = second compound 0.03 µM, first compound 1 µM
[13] = second compound 0.0949 µM, first compound 0.00316 µM
[14] = second compound 0.0949 µM, first compound 0.01 µM
[15] = second compound 0.0949 µM, first compound 0.0316 µM
[16] = second compound 0.0949 µM, first compound 0.1 µM
[17] = second compound 0.0949 µM, first compound 0.316 µM
[18] = second compound 0.0949 µM, first compound 1 µM
[19] = second compound 0.3 µM, first compound 0.00316 µM
[20] = second compound 0.3 µM, first compound 0.01 µM
[21] = second compound 0.3 µM, first compound 0.0316 µM
[22] = second compound 0.3 µM, first compound 0.1 µM
[23] = second compound 0.3 µM, first compound 0.316 µM
[24] = second compound 0.3 µM, first compound 1 µM
[25] = second compound 0.949 µM, first compound 0.00316 µM
[26] = second compound 0.949 µM, first compound 0.01 µM
[27] = second compound 0.949 µM, first compound 0.0316 µM
[28] = second compound 0.949 µM, first compound 0.1 µM
[29] = second compound 0.949 µM, first compound 0.316 µM
[30] = second compound 0.949 µM, first compound 1 µM
[31] = second compound 3 µM, first compound 0.00316 µM
[32] = second compound 3 µM, first compound 0.01 µM
[33] = second compound 3 µM, first compound 0.0316 µM
[34] = second compound 3 µM, first compound 0.1 µM
[35] = second compound 3 µM, first compound 0.316 µM
[36] = second compound 3 µM, first compound 1 µM
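Also: spheroids exposed to compounds for 7 days.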
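For viability, T/C in this document: 100% = DMSO vehicle control wells.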

IC50 (second compound 0.00949 µM): > 1000 nM | IC50 (second compound 0.03 µM): > 1000 nM | IC50 (second compound 0.0949 µM): > 1000 nM | IC50 (second compound 0.3 µM): > 1000 nM | IC50 (second compound 0.949 µM): > 1000 nM | IC50 (second compound 3 µM): > 1000 nM
Structure (SMILES): CCN1CCN(Cc2ccc(Nc3ncc(F)c(-c4cc(F)c5nc(C)n(C(C)C)c5c4)n3)nc2)CC1 + CCN1C(C(=O)NC23CCC(C(=O)O)(CC2)CC3)C(c2cccc(Cl)c2F)C2(C(=O)Nc3cc(Cl)ccc32)C12CCCCC2
viability, T/C [1]: 102% | viability, T/C [2]: 90.3% | viability, T/C [3]: 79.1% | viability, T/C [4]: 101% | viability, T/C [5]: 89.1% | viability, T/C [6]: 88.6% | viability, T/C [7]: 101% | viability, T/C [8]: 104% | viability, T/C [9]: 88.5% | viability, T/C [10]: 92.2% | viability, T/C [11]: 92.9% | viability, T/C [12]: 102% | viability, T/C [13]: 112% | viability, T/C [14]: 101% | viability, T/C [15]: 97.4% | viability, T/C [16]: 95.5% | viability, T/C [17]: 91.3% | viability, T/C [18]: 106% | viability, T/C [19]: 106% | viability, T/C [20]: 112% | viability, T/C [21]: 102% | viability, T/C [22]: 87.8% | viability, T/C [23]: 93.1% | viability, T/C [24]: 90.2% | viability, T/C [25]: 108% | viability, T/C [26]: 98.5% | viability, T/C [27]: 109% | viability, T/C [28]: 93.2% | viability, T/C [29]: 93.3% | viability, T/C [30]: 102% | viability, T/C [31]: 106% | viability, T/C [32]: 101% | viability, T/C [33]: 91.5% | viability, T/C [34]: 84.8% | viability, T/C [35]: 103% | viability, T/C [36]: 93.2%

IC50 (second compound 0.00949 µM): 563 nM | IC50 (second compound 0.03 µM): 587 nM | IC50 (second compound 0.0949 µM): 389 nM | IC50 (second compound 0.3 µM): 559 nM | IC50 (second compound 0.949 µM): 380 nM | IC50 (second compound 3 µM): 322 nM
Structure (SMILES): O=C(c1ccc(F)c(F)c1Nc1ccc(I)cc1F)N1CC(O)([C@@H]2CCCCN2)C1 + CCN1C(C(=O)NC23CCC(C(=O)O)(CC2)CC3)C(c2cccc(Cl)c2F)C2(C(=O)Nc3cc(Cl)ccc32)C12CCCCC2
viability, T/C [1]: 85.8% | viability, T/C [2]: 102% | viability, T/C [3]: 134% | viability, T/C [4]: 105% | viability, T/C [5]: 65.1% | viability, T/C [6]: 35% | viability, T/C [7]: 113% | viability, T/C [8]: 106% | viability, T/C [9]: 104% | viability, T/C [10]: 104% | viability, T/C [11]: 68.5% | viability, T/C [12]: 34% | viability, T/C [13]: 104% | viability, T/C [14]: 111% | viability, T/C [15]: 114% | viability, T/C [16]: 90.7% | viability, T/C [17]: 53.5% | viability, T/C [18]: 38.3% | viability, T/C [19]: 121% | viability, T/C [20]: 117% | viability, T/C [21]: 120% | viability, T/C [22]: 86.3% | viability, T/C [23]: 63.2% | viability, T/C [24]: 38.7% | viability, T/C [25]: 118% | viability, T/C [26]: 115% | viability, T/C [27]: 120% | viability, T/C [28]: 80% | viability, T/C [29]: 57.2% | viability, T/C [30]: 38.5% | viability, T/C [31]: 103% | viability, T/C [32]: 112% | viability, T/C [33]: 104% | viability, T/C [34]: 78.5% | viability, T/C [35]: 52.5% | viability, T/C [36]: 34.4%
